Laboratory results as given in US7011839B2, “Otic microbial combination for treatment of animals with ruptured tympanic membrane” (Baya Corporation, priority 2000, dated 2006).

Tests used:
Assay in all cases: MIC of each active ingredient (NCCLS agar plates)
Type in all cases: cell-based
Malassezia = conditions: at the concentrations tested
Description: (§1) An in vitro microbiology study of the combination of the Enrofloxacin (quinolone) and sulfadiazine was conducted on multiple canine otic pathogens. The study was conducted under the National Committee for Clinical Laboratory Standards (NCCLS) guidelines employing ATCC control organisms for each agar plate tested. Initially, minimum inhibitory concentrations (MICs) were established for each active ingredient.

Candida = conditions: at the concentrations tested
Description: as §1

[1] = test system: common dermal (otic) pathogens
Description: as §1

## CCN1CCN(c2cc3c(cc2F)c(=O)c(C(=O)O)cn3C2CC2)CC1 [Enrofloxacin]
Malassezia
  Effectiveness on Malassezia: not effective
Candida
  Effectiveness on Candida: not effective
[1]
  Activity on common dermal (otic) pathogens, based on MICs: active
